The source made the active and inactive calls. No cut-off for these calls is given here. Where a SMILES comes first, the peptide text is derived from it. Side-chain parts run from the residue outwards. [ ]: non-standard residue; d: D form. The star is where a group is joined. ξ: configuration not given here. Biotin = O=C1N[C@H]2[C@H](CS[C@H]2CCCCC(=O)*)N1; Oic(3aξ,7aξ) = O=C(O)[C@@H]1CC2CCCCC2N1; hArg = N=C(N)NCCCC[C@H](N)C(=O)O; Aun = NCCCCCCCCCCC(=O)O; Dab = NCC[C@H](N)C(=O)O; ξK = NCCCCC(N)C(=O)O
Columns and labels:
[1] = test system: MDA-MB-231; assay: Increase in NRP-1 expression in human MDA-MB-231 cell membrane at 59 uM preincubated for 15 mins at 4 degC followed by compound washout and further incubated for 5 mins with subsequent addition of compound at 37 degC by FITC-streptavidin staining based flow cytometry analysis; assay type: functional; conditions: time 20.0 min
[2] = test system: Cell membrane; assay: Binding affinity to human MDA-MB-231 cell membrane at 59 uM preincubated for 15 mins at 4 degC followed by compound washout and further incubated for 5 mins with subsequent addition of compound at 37 degC by Alexa Fluor 594-streptavidin staining based fluorescence microscopy; assay type: subcellular; conditions: time 20.0 min
[3] = test system: MDA-MB-231; assay: Increase in NRP-1 expression in human MDA-MB-231 cell membrane at 59 uM preincubated for 15 mins at 4 degC followed by compound washout and further incubated for 60 mins with subsequent addition of compound at 37 degC by FITC-streptavidin staining based flow cytometry analysis; assay type: functional; conditions: time 75.0 min
[4] = test system: Cell membrane; assay: Binding affinity to human MDA-MB-231 cell membrane at 59 uM measured after 15 mins at 4 degC by Alexa Fluor 594-streptavidin staining based fluorescence microscopy; assay type: subcellular
[5] = target: Neuropilin-1 (Homo sapiens) (UniProt O14786); assay: Binding affinity to NRP-1 in human MDA-MB-231 cells at 12.5 to 100 ug/ml measured after 15 mins by FITC-streptavidin staining based flow cytometry analysis; assay type: cell-based; conditions: dose 12.5-100 µg/ml
Sequence of Neuropilin-1 (Homo sapiens) (O14786 whole entry): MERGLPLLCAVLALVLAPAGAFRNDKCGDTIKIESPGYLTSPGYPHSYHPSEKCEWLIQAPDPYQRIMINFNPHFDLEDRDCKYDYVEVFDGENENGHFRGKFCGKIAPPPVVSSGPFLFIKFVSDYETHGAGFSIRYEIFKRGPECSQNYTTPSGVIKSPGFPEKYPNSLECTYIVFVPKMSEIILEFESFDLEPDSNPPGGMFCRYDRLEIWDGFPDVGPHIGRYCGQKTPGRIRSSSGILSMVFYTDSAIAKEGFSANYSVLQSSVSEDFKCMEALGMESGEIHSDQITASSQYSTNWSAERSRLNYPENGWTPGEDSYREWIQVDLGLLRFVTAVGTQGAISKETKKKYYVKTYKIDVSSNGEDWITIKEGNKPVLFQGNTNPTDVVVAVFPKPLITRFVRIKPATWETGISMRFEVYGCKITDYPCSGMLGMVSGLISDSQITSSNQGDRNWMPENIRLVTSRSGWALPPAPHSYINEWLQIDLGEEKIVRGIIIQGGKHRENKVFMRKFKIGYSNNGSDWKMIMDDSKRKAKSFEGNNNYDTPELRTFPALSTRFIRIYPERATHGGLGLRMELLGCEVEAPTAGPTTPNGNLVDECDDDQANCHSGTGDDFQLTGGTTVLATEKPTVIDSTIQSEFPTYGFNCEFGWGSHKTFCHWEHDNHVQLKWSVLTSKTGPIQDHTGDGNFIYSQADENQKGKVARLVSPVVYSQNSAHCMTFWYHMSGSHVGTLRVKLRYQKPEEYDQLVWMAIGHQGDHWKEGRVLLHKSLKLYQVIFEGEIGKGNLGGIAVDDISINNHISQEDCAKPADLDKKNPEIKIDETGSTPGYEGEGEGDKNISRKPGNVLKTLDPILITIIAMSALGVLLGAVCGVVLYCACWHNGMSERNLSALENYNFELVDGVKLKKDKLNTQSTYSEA

[6] = target: Neuropilin-1 (Homo sapiens) (UniProt O14786); assay: Binding affinity to NRP-1 in human MDA-MB-435 cells at 12.5 to 100 ug/ml measured after 15 mins by FITC-streptavidin staining based flow cytometry analysis; assay type: cell-based; conditions: dose 12.5-100 µg/ml
[7] = test system: Cell membrane; assay: Binding affinity to human MDA-MB-231 cell membrane at 59 uM preincubated for 15 mins at 4 degC followed by compound washout and further incubated for 5 mins with subsequent addition of compound at 37 degC by FITC-streptavidin staining based flow cytometry analysis; assay type: subcellular; conditions: time 20.0 min
[8] = test system: MDA-MB-231; assay: Increase in NRP-1 expression in human MDA-MB-231 cell membrane at 5.9 uM preincubated for 15 mins at 4 degC followed by compound washout and further incubated for 60 mins with subsequent addition of compound at 37 degC by FITC-streptavidin staining based flow cytometry analysis; assay type: functional; conditions: time 75.0 min
[9] = target: VEGA-NRP1 (Homo sapiens) (UniProt P15692+O14786); assay: Inhibition of biotinylated-VEGFA165 (unknown origin) binding to C-terminal 6-His tagged human NRP-1 (Phe22 to Lys644 residues) expressed in mouse NS0 cells at 100 uM measured after 2 hrs by chemiluminescence assay relative to control; assay type: cell-based
Sequence of VEGA-NRP1 (Homo sapiens) (O14786 22-923 partner limits assumed): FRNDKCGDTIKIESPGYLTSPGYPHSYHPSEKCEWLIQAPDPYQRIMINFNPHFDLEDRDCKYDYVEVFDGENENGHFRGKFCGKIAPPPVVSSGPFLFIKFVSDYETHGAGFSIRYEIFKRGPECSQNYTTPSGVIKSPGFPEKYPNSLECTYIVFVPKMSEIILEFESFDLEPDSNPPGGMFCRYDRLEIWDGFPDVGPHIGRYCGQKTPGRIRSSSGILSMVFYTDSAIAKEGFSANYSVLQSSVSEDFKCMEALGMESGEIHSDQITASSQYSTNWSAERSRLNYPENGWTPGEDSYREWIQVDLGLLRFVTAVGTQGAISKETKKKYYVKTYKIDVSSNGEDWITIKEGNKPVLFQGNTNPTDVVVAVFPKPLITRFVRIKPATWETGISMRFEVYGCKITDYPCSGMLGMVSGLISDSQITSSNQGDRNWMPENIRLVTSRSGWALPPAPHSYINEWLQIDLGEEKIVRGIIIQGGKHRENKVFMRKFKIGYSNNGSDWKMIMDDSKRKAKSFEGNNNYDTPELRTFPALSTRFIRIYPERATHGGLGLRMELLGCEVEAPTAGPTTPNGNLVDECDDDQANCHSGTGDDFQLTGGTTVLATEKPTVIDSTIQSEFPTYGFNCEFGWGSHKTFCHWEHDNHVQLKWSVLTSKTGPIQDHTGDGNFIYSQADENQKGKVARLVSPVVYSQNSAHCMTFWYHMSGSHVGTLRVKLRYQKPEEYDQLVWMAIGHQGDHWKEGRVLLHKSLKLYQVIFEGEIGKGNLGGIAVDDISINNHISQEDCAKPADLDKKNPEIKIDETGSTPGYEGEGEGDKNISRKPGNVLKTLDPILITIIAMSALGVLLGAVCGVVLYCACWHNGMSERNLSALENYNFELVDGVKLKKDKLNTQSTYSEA
Sequence of VEGA-NRP1 (Homo sapiens) (P15692 whole entry): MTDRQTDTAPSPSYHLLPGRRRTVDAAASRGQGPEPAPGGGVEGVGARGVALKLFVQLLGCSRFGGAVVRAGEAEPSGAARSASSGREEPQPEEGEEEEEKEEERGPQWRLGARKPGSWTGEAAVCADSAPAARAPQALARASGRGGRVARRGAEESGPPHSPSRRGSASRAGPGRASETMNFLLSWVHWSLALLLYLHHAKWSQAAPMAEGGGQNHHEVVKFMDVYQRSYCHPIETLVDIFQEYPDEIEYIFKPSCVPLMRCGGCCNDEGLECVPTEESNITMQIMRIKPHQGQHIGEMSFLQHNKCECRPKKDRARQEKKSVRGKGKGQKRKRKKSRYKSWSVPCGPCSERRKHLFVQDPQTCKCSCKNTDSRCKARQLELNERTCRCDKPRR

[10] = Half-life in human serum by LC-SWATH-MS analysis; assay type: ADME, cell-free
[11] = target: VEGA-NRP1 (Homo sapiens, UniProt O14786); assay: Inhibition of human biotinylated-VEGFA165 binding to recombinant human NRP-1 measured after 2 hrs by chemiluminescent based ELISA; assay type: protein assay; conditions: read-out: IC50
Sequence of VEGA-NRP1 (P15692 whole entry): as above
Sequence of VEGA-NRP1 (O14786 whole entry): as the sequence (O14786 whole entry) above

Compound	Activity [1]	Activity [2]	Activity [3]	Activity [4]	Activity [5]	Activity [6]	Activity [7]	Activity [8]	inhibition [9]	half-life [10]	IC50 [11]
N=C(N)NCCCC[C@H](NC(=O)CCCCCCCCCCNC(=O)CCCC[C@@H]1SC[C@@H]2NC(=O)N[C@@H]21)C(=O)NCCCC[C@H](NC(=O)[C@@H](N)CS)C(=O)N[C@@H](CCN)C(=O)N1C2CCCCC2C[C@H]1C(=O)N[C@@H](CCCNC(=N)N)C(=O)O (stereo partly drawn) (H-CK([hArg-Aun-Biotin])[Dab][Oic(3aξ,7aξ)]R-OH)	Active	Active	Active	Active	Active	inactive	Active	inactive			
C[C@@H](O)[C@H](NC(=O)[C@H](CCCNC(=N)N)NC(=O)[C@@H](N)CCC(=O)O)C(=O)N[C@@H](CS)C(=O)N[C@@H](CCCNC(=N)N)C(=O)N[C@@H](CS)C(=O)N[C@@H](CC(=O)O)C(=O)N[C@@H](CCCCN)C(=O)N1CCC[C@H]1C(=O)N[C@@H](CCCNC(=N)N)C(=O)N[C@@H](CCCNC(=N)N)C(=O)O (H-ERTCRCDKPRR-OH)									96%		
CC[C@H](N)C(=O)N[C@@H](CCCCNC(=O)[C@@H](N)CCCCNC(=N)N)C(=O)N[C@@H](CCN)C(=O)N1C2CCCCC2C[C@H]1C(=O)N[C@@H](CCCNC(=N)N)C(=O)O (stereo not given in full) (HELM PEPTIDE1{[Abu].K.[Dab].[O=C([C@@H]1CC2CCCCC2N1[*:1])[*:2]].R}|PEPTIDE2{[N=C(N)NCCCC[C@H](N)C(=O)[*:2]]}$PEPTIDE1,PEPTIDE2,2:R3-1:R2$$$V2.0)										2 h	2410 nM
N=C(N)NCCCC[C@H](NC(=O)[C@@H](N)CS)C(=O)NCCCCC(NC(=O)CCCCCCCCCCNC(=O)CCCC[C@@H]1SC[C@@H]2NC(=O)N[C@@H]21)C(=O)N[C@@H](CCN)C(=O)N1C2CCCCC2C[C@H]1C(=O)N[C@@H](CCCNC(=N)N)C(=O)O (stereo not given in full) ({Biotin-Aun}-[ξK]([hArg-Cys])[Dab][Oic(3aξ,7aξ)]R-OH)	Active	Active	Active	Active	Active	inactive	Active	inactive			
H-CDKPRR-OH									96%		

Source: ChEMBL document CHEMBL5365540, “Structure-activity relationship studies and biological properties evaluation of peptidic NRP-1 ligands: Investigation of N-terminal cysteine importance” (Bioorg Med Chem, 2023)
